Laboratory results published in paper PMC4685510, “A Cell Biologist’s Field Guide to Aurora Kinase Inhibitors” (Frontiers in Oncology, 2015).

Columns and labels:
Assay in all cases: biochemical
Assay type in all cases: biochemical
[1] = biological target: 363 human kinases (including Aurora A/B/C) (Homo sapiens, UniProt Q8IU85); conditions: CAMK1d, [ATP] 2.5 µM; for remaining activity at 0.1 µM: 100 nM; for remaining activity at 0.1 µM / remaining activity at 0.5 µM: read-out: % Enzyme Activity (relative to DMSO controls)
Sequence of 363 human kinases (including Aurora A/B/C) (Homo sapiens, UniProt Q8IU85) (Q8IU85 whole entry): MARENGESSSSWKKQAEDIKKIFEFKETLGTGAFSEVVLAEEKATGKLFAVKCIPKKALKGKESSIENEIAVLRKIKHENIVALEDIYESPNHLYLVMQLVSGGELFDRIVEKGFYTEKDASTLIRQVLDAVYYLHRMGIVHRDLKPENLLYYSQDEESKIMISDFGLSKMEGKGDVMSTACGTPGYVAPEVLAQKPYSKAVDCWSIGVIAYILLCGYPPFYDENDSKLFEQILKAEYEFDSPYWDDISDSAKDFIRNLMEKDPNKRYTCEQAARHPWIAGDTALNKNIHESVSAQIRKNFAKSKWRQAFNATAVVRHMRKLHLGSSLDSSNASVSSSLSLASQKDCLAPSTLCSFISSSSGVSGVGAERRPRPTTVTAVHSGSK
From the text: (§1) However, the Aurora A/B selectivity ratios derived from our in vitro and in vivo data can be compared to prioritize inhibitors.

[2] = biological target: 363 human kinases (including Aurora A/B/C) (Homo sapiens, UniProt Q13153); conditions: PAK1; for remaining activity at 0.1 µM: 100 nM; for remaining activity at 0.1 µM / remaining activity at 0.5 µM: read-out: % Enzyme Activity (relative to DMSO controls)
Sequence of 363 human kinases (including Aurora A/B/C) (Homo sapiens, UniProt Q13153) (Q13153 whole entry): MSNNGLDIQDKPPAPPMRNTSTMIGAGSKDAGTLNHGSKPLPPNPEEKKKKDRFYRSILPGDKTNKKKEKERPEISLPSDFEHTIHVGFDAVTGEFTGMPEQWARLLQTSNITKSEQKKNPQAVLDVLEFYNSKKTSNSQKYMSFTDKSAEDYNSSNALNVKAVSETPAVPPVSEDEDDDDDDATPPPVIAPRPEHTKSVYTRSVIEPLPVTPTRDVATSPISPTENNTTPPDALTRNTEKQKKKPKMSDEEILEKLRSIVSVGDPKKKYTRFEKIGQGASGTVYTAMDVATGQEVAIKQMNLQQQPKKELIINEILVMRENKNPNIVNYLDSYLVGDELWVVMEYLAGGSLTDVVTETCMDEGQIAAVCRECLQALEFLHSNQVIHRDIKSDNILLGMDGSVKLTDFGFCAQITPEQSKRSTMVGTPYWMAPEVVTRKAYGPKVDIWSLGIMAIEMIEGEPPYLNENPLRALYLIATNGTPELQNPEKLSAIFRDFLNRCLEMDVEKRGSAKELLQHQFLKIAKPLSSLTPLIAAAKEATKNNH
From the text: as §1

[3] = biological target: 363 human kinases (including Aurora A/B/C) (Homo sapiens, UniProt P78362); conditions: SRPK2; for remaining activity at 0.1 µM: 100 nM; for remaining activity at 0.1 µM / remaining activity at 0.5 µM: read-out: % Enzyme Activity (relative to DMSO controls)
Sequence of 363 human kinases (including Aurora A/B/C) (Homo sapiens, UniProt P78362) (P78362 whole entry): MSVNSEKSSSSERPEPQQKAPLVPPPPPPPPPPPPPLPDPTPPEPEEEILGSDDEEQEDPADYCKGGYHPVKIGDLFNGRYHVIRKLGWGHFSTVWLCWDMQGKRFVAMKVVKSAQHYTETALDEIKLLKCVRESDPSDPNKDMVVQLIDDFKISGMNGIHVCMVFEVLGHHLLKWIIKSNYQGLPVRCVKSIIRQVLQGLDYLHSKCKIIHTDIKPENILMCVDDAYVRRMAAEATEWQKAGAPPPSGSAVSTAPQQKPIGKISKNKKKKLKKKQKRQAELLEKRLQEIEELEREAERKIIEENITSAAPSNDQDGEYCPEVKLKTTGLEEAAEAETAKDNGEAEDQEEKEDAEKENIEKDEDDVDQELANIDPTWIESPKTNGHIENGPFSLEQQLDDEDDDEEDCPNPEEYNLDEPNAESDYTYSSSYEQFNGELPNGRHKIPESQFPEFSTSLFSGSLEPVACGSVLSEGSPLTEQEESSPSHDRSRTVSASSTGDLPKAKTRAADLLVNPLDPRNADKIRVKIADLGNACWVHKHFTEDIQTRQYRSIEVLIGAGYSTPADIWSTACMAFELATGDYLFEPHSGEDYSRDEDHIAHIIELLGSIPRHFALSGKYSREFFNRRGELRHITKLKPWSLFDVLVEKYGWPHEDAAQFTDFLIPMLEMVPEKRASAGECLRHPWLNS
From the text: as §1

[4] = biological target: T1, 363 human kinases (including Aurora A/B/C) (Homo sapiens, UniProt Q8IWQ3); conditions: BRSK2, [ATP] 50 µM; for remaining activity at 0.1 µM: 100 nM; for remaining activity at 0.1 µM / remaining activity at 0.5 µM: read-out: % Enzyme Activity (relative to DMSO controls)
T1 sequence (Q8IWQ3 1-736): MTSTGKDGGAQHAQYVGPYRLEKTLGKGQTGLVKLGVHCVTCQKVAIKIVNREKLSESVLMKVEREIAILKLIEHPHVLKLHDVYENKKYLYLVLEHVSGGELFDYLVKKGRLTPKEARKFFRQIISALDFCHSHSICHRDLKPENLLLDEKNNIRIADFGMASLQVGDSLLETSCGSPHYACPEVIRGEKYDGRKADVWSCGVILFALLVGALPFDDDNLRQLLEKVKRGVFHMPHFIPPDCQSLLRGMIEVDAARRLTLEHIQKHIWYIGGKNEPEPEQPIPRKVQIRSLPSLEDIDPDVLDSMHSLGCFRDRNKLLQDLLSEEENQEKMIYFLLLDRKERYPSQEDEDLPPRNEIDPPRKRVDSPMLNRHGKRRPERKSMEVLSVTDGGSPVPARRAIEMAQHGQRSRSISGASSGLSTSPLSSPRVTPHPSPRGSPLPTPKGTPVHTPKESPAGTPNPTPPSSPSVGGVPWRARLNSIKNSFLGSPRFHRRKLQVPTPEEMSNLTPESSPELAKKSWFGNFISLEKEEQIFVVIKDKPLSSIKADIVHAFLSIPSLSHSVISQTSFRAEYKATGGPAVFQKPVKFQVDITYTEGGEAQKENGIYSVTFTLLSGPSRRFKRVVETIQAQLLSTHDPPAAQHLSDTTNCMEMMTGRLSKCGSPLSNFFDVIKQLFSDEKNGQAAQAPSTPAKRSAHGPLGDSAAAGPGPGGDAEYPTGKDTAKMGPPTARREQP
From the text: as §1

[5] = biological target: 363 human kinases (including Aurora A/B/C) (Homo sapiens, UniProt P07948); conditions: LYN; for remaining activity at 0.1 µM: 100 nM; for remaining activity at 0.1 µM / remaining activity at 0.5 µM: read-out: % Enzyme Activity (relative to DMSO controls)
Sequence of 363 human kinases (including Aurora A/B/C) (Homo sapiens, UniProt P07948) (P07948 whole entry): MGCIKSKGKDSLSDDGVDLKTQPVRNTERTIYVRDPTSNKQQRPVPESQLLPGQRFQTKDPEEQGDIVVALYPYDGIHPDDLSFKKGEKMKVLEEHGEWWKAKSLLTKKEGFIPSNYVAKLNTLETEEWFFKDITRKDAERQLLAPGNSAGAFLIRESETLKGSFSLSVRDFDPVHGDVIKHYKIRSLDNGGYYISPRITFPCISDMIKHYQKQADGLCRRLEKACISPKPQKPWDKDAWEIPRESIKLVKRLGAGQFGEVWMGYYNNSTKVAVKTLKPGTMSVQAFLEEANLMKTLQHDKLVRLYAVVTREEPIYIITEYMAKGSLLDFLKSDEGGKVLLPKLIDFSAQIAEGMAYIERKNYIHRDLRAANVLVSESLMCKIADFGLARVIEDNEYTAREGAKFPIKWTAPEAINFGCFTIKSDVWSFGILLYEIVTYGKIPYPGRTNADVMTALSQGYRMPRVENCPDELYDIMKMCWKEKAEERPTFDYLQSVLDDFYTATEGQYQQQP
From the text: as §1

[6] = biological target: 363 human kinases (including Aurora A/B/C) (Homo sapiens, UniProt Q05397); conditions: FAK/PTK2, [ATP] 50 µM; for remaining activity at 0.1 µM: 100 nM; for remaining activity at 0.1 µM / remaining activity at 0.5 µM: read-out: % Enzyme Activity (relative to DMSO controls)
Sequence of 363 human kinases (including Aurora A/B/C) (Homo sapiens, UniProt Q05397) (Q05397 whole entry): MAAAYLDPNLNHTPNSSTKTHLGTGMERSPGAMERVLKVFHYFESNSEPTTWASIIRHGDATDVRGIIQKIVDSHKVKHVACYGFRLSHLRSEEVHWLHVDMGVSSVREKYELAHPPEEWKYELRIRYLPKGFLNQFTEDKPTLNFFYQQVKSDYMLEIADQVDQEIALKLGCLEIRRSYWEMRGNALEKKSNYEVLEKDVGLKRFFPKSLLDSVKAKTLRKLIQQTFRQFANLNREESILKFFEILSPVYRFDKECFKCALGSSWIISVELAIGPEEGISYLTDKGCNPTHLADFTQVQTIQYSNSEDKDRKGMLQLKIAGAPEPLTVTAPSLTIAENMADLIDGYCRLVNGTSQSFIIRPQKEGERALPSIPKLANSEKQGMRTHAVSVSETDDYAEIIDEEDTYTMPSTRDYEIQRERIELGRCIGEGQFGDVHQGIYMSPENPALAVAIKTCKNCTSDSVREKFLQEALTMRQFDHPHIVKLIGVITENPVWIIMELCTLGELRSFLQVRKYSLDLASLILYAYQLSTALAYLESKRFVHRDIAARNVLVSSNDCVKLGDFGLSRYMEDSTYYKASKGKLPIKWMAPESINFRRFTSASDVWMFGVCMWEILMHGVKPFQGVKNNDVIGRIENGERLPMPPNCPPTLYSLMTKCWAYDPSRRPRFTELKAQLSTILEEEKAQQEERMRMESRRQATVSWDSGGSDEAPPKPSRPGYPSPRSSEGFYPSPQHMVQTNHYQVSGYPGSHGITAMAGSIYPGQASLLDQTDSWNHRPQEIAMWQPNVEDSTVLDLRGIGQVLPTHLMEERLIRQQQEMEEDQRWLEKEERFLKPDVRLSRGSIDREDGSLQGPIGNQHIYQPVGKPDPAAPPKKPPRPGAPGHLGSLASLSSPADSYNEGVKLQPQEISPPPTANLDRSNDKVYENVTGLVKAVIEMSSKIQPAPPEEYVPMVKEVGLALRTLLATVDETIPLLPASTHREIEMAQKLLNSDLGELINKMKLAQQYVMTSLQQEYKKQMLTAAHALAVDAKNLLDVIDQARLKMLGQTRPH
From the text: as §1

[7] = biological target: 363 human kinases (including Aurora A/B/C) (Homo sapiens, UniProt P29376); conditions: TYK1/LTK; for remaining activity at 0.1 µM: 100 nM; for remaining activity at 0.1 µM / remaining activity at 0.5 µM: read-out: % Enzyme Activity (relative to DMSO controls)
Sequence of 363 human kinases (including Aurora A/B/C) (Homo sapiens, UniProt P29376) (P29376 17-864): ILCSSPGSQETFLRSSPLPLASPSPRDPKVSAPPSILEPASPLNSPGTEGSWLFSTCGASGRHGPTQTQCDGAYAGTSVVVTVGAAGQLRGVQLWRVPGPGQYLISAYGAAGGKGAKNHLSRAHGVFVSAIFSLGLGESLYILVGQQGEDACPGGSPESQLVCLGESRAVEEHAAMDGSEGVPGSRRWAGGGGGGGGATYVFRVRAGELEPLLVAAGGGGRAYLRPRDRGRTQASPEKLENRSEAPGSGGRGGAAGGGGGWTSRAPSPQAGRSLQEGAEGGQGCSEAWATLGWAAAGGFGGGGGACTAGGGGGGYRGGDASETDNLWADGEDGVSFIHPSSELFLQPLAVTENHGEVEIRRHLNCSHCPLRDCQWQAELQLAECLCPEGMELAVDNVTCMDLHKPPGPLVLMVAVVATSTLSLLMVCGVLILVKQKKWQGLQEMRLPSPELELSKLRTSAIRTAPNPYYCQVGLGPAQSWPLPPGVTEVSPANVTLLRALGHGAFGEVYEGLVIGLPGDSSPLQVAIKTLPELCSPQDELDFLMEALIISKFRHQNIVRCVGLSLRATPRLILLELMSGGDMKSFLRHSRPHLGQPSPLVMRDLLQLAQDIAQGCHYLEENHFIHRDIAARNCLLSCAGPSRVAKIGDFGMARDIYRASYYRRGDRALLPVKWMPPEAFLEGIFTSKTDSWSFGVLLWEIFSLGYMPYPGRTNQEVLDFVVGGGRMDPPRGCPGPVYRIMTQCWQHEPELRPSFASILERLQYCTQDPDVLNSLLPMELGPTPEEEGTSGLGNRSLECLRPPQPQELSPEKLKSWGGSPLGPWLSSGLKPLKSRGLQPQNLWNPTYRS
From the text: as §1

[8] = biological target: T2, 363 human kinases (including Aurora A/B/C) (Homo sapiens, UniProt Q9H2K8); conditions: TAOK3/JIK; for remaining activity at 0.1 µM: 100 nM; for remaining activity at 0.1 µM / remaining activity at 0.5 µM: read-out: % Enzyme Activity (relative to DMSO controls)
T2 sequence (Q9H2K8 1-898): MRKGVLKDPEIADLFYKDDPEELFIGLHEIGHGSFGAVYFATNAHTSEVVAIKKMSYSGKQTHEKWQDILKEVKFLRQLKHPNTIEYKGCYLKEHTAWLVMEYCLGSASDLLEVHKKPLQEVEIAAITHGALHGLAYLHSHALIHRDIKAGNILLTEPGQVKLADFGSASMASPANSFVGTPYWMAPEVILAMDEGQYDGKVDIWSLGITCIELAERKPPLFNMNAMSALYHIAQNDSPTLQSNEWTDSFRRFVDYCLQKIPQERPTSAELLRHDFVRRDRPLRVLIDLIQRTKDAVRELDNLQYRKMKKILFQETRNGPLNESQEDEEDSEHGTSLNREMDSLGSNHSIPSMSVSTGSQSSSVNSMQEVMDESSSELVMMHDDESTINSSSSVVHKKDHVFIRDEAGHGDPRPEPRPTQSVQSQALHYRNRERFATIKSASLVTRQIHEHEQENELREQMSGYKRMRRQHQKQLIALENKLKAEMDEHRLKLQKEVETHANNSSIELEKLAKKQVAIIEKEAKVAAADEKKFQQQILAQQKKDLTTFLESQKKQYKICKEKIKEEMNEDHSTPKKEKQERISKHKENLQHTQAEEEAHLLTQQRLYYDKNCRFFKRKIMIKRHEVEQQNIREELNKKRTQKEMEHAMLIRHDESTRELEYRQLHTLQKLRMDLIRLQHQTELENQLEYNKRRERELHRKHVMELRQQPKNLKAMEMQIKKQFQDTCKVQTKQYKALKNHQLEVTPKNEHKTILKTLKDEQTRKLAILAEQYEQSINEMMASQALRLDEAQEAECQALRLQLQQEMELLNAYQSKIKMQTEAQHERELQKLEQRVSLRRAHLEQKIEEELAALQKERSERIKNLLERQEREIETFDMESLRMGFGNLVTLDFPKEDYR
From the text: as §1

[9] = biological target: 363 human kinases (including Aurora A/B/C) (Homo sapiens, UniProt Q9NY57); conditions: STK32B/YANK2; for remaining activity at 0.1 µM: 100 nM; for remaining activity at 0.1 µM / remaining activity at 0.5 µM: read-out: % Enzyme Activity (relative to DMSO controls)
Sequence of 363 human kinases (including Aurora A/B/C) (Homo sapiens, UniProt Q9NY57) (Q9NY57 whole entry): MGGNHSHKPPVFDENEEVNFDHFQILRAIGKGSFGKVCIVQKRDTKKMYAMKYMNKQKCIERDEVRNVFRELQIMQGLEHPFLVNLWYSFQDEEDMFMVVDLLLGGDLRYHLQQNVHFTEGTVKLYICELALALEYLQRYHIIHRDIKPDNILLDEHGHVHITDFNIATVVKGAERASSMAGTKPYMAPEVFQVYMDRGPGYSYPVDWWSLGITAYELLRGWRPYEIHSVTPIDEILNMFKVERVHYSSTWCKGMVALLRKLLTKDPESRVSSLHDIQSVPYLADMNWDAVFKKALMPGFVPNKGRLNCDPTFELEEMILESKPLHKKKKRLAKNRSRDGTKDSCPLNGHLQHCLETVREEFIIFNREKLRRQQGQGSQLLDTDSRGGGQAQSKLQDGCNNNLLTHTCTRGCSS
From the text: as §1

| Structure (SMILES) | remaining activity at 0.1 µM [1] [%] | remaining activity at 0.1 µM [2] [%] | remaining activity at 0.1 µM [3] [%] | remaining activity at 0.1 µM [4] [%] | remaining activity at 0.1 µM [5] [%] | remaining activity at 0.1 µM [6] [%] | remaining activity at 0.1 µM [7] [%] | remaining activity at 0.1 µM [8] [%] | remaining activity at 0.1 µM [9] [%] | remaining activity at 0.5 µM ([1]; 500 nM) [%] | remaining activity at 0.5 µM ([2]; 500 nM) [%] | remaining activity at 0.5 µM ([3]; 500 nM) [%] | remaining activity at 0.5 µM ([4]; 500 nM) [%] | remaining activity at 0.5 µM ([5]; 500 nM) [%] | remaining activity at 0.5 µM ([6]; 500 nM) [%] | remaining activity at 0.5 µM ([7]; 500 nM) [%] | remaining activity at 0.5 µM ([8]; 500 nM) [%] | remaining activity at 0.5 µM ([9]; 500 nM) [%] | also measured |
| --- | --- | --- | --- | --- | --- | --- | --- | --- | --- | --- | --- | --- | --- | --- | --- | --- | --- | --- | --- |
| CCn1cc(-c2ccnc3[nH]c(-c4cccc(CN(C)C)c4)cc23)c(-c2ccc(NC(=O)N(C)C)cc2)n1 [GSK1070916] | 111 | 81.9 | 96.5 | 88.4 | 79.2 | 95.2 | 106 | 174 | 93.6 | – | – | – | – | – | – | – | – | – | – |
| O=C(O)[C@]1(Cc2cccc(Nc3nccs3)n2)CC[C@@H](Oc2cccc(Cl)c2F)CC1 [MK-5108] | 94.4 | 93.7 | 95.4 | 92.7 | 76.9 | 49.8 | 87.6 | 80.2 | 95.8 | 114 | 81.2 | 94.3 | 78.7 | 45.6 | 15.2 | 64.2 | 110 | 95.7 | – |
| O=C(c1cccc(Cl)c1F)N1CCN(Cc2cccc(Nc3nccs3)n2)CC1 [MK-8745] | – | – | – | – | – | – | – | – | – | 114 | 87.5 | 99.7 | 109 | 65.1 | 60.2 | 96.4 | 95.2 | 97.9 | % Enzyme Activity (relative to DMSO controls) ([1]; 500 nM): 112.12%; % Enzyme Activity (relative to DMSO controls) ([2]; 500 nM): 85.62%; % Enzyme Activity (relative to DMSO controls) ([3]; 500 nM): 98.38%; % Enzyme Activity (relative to DMSO controls) ([4]; 500 nM): 107.67%; % Enzyme Activity (relative to DMSO controls) ([5]; 500 nM): 64.18%; % Enzyme Activity (relative to DMSO controls) ([6]; 500 nM): 58.97%; % Enzyme Activity (relative to DMSO controls) ([7]; 500 nM): 94.24%; % Enzyme Activity (relative to DMSO controls) ([8]; 500 nM): 93.76%; % Enzyme Activity (relative to DMSO controls) ([9]; 500 nM): 95.67% |
